In patent US9085555B2, “Complement pathway modulators and uses thereof” (priority 2011, dated 2015):
Like-named read-outs stand apart in the source and are kept apart here.

Target: Factor D (Homo sapiens (Human), UniProt P00746)
Experiment: biochemical
Assay type: biochemical

Sequence of Factor D (P00746 26-253): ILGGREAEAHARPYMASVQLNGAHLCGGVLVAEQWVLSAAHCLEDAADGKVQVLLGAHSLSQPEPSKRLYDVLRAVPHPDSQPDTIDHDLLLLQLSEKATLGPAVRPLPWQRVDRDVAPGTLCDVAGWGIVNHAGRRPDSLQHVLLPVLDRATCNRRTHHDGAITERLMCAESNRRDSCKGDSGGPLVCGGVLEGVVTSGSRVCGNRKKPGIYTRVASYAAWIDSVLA

Question: `NC(=O)n1cc(NC(=O)N2C[C@@H](N)C[C@H]2C(=O)Nc2cccc(-c3ccccc3)c2)c2ccccc21` [Example 103, (2S,4S)-4-Amino-pyrrolidine-1,2-dicarboxylic acid 2-biphenyl-3-ylamide 1-[(1-carbamoyl-1H-indol-3-yl)-amide]] was tested. Which IC50 (read-out: IC50) did it give?
Answer: 550 nM

Question: For `NC(=O)n1cc(NC(=O)N2C[C@H](F)C[C@H]2CNS(=O)(=O)c2ccccc2F)c2ccccc21` [Example 104, 3-({(2S,4R)-4-Fluoro-2-[(2-fluoro-benzenesulfonylamino)-methyl]-pyrrolidine-1-carbonyl}-amino)-indole-1-carboxylic acid amide], which IC50 (read-out: IC50) is on record?
Answer: 1490 nM

Question: Which IC50 (read-out: IC50) does the source give for `NC(=O)n1cc(NC(=O)N2C[C@H](F)C[C@H]2CNS(=O)(=O)c2ccccc2)c2ccccc21` [Example 105, 3-{[(2S,4R)-2-(Benzenesulfonylamino-methyl)-4-fluoro-pyrrolidine-1-carbonyl]-amino}-indole-1-carboxylic acid amide] here?
Answer: 800 nM

Question: With `NC(=O)n1cc(NC(=O)N2C[C@H](F)C[C@H]2CNS(=O)(=O)c2cccc(F)c2)c2ccccc21` [Example 106, 3-({(2S,4R)-4-Fluoro-2-[(3-fluoro-benzenesulfonylamino)-methyl]-pyrrolidine-1-carbonyl}-amino)-indole-1-carboxylic acid amide] as the compound, how does the IC50 (read-out: IC50) read?
Answer: 700 nM

Question: How did the IC50 (read-out: IC50) turn out when `NC(=O)n1cc(NC(=O)N2C[C@H](F)C[C@H]2CNS(=O)(=O)c2cccc(Cl)c2)c2ccccc21` [Example 107, 3-({(2S,4R)-4-Fluoro-2-[(3-chloro-benzenesulfonylamino)-methyl]-pyrrolidine-1-carbonyl}-amino)-indole-1-carboxylic acid amide] was run?
Answer: 75 nM

Question: Which IC50 (read-out: IC50) does the source give for `NC(=O)n1cc(NC(=O)N2C[C@H](F)C[C@H]2CNS(=O)(=O)c2cccc(Br)c2)c2ccccc21` [Example 108, 3-({(2S,4R)-4-Fluoro-2-[(3-bromo-benzenesulfonylamino)-methyl]-pyrrolidine-1-carbonyl}-amino)-indole-1-carboxylic acid amide] here?
Answer: 55 nM

Question: Which IC50 (read-out: IC50) does the source give for `NC(=O)n1cc(NC(=O)N2C[C@H](F)C[C@H]2CNS(=O)(=O)c2cccc(OC(F)(F)F)c2)c2ccccc21` [Example 109, 3-({(2S,4R)-4-Fluoro-2-[(3-trifluoromethoxy-benzenesulfonylamino)-methyl]-pyrrolidine-1-carbonyl}-amino)-indole-1-carboxylic acid amide] here?
Answer: 2700 nM

Question: For `NC(=O)n1cc(NC(=O)N2C[C@H](F)C[C@H]2CNS(=O)(=O)c2cccc(Cl)c2F)c2ccccc21` [Example 110, 3-({(2S,4R)-2-[(3-Chloro-2-fluoro-benzenesulfonylamino)-methyl]-4-fluoro-pyrrolidine-1-carbonyl}-amino)-indole-1-carboxylic acid amide], which IC50 (read-out: IC50) is on record?
Answer: 20 nM

Question: For `NC(=O)n1cc(NC(=O)N2C[C@H](F)C[C@H]2CNS(=O)(=O)c2ccc(Cl)s2)c2ccccc21` [Example 111, 3-({(2S,4R)-2-[(5-Chloro-thiophene-2-sulfonylamino)-methyl]-4-fluoro-pyrrolidine-1-carbonyl}-amino)-indole-1-carboxylic acid amide], which IC50 (read-out: IC50) is on record?
Answer: 60 nM

Question: Which IC50 (read-out: IC50) does the source give for `NC(=O)n1cc(NC(=O)N2CCC[C@H]2CNS(=O)(=O)c2cccc(Cl)c2)c2ccccc21` [Example 112, 3-({(S)-2-[(3-Chloro-benzenesulfonylamino)-methyl]-pyrrolidine-1-carbonyl}-amino)-indole-1-carboxylic acid amide] here?
Answer: 550 nM

Question: For `NC(=O)n1cc(NC(=O)N2C[C@H](F)C[C@H]2CNC(=O)Cc2ccccc2)c2ccccc21` [Example 113, 3-{[(2S,4R)-4-Fluoro-2-(phenylacetylamino-methyl)-pyrrolidine-1-carbonyl]-amino}-indole-1-carboxylic acid amide], which IC50 (read-out: IC50) is on record?
Answer: 1150 nM

Question: Which IC50 (read-out: IC50) does the source give for `NC(=O)n1cc(NC(=O)N2C[C@H](F)C[C@H]2CNCc2cccc(Cl)c2F)c2ccccc21` [Example 116, 3-({(2S,4R)-2-[(3-Chloro-2-fluoro-benzylamino)-methyl]-4-fluoro-pyrrolidine-1-carbonyl}-amino)-indole-1-carboxylic acid amide] here?
Answer: 1150 nM

Question: `NC(=O)n1cc(NC(=O)N2CCC[C@H]2CNc2cccc(OC(F)(F)F)c2)c2ccccc21` [Example 117, 3-({(S)-2-[(3-Trifluoromethoxy-phenylamino)-methyl]-pyrrolidine-1-carbonyl}-amino)-indole-1-carboxylic acid amide] was tested. Which IC50 (read-out: IC50) did it give?
Answer: 11800 nM

Question: How did the IC50 (read-out: IC50) turn out when `NC(=O)c1cn(CC(=O)N2CCC[C@H]2C(=O)Nc2cccc(OC(F)(F)F)c2)c2ccccc12` [Example 118, 1-{2-oxo-2-[(S)-2-(3-trifluoromethoxy-phenylcarbamoyl)-pyrrolidin-1-yl]-ethyl}-1H-indole-3-carboxylic acid amide] was run?
Answer: 17500 nM

Question: For `CC(=O)n1cc(CC(=O)N2CCC[C@H]2C(=O)Nc2cccc(OC(F)(F)F)c2)c2ccccc21` [Example 119, (S)-1-[2-(1-Acetyl-1H-indol-3-yl)-acetyl]-pyrrolidine-2-carboxylic acid (3-trifluoromethoxy-phenyl)-amide], which IC50 (read-out: IC50) is on record?
Answer: 4800 nM

Question: How did the IC50 (read-out: IC50) turn out when `CC(=O)n1cc(C(N)C(=O)N2C[C@H](F)C[C@H]2C(=O)NCc2cccc(Cl)c2F)c2ccccc21` (stereo partly drawn) [Example 120, (2S,4R)-1-[2-(1-Acetyl-1H-indol-3-yl)-2-amino-acetyl]-4-fluoro-pyrrolidine-2-carboxylic acid 3-chloro-2-fluoro-benzylamide] was run?
Answer: 3200 nM

Question: For `NC(=O)c1cc(NC(=O)N2CCC[C@H]2C(=O)Nc2cccc(OC(F)(F)F)c2)c2ccccn12` [Example 121, (S)-Pyrrolidine-1,2-dicarboxylic acid 1-[(3-carbamoyl-indolizin-1-yl)-amide]2-[(3-trifluoromethoxy-phenyl)-amide]], which IC50 (read-out: IC50) is on record?
Answer: 1250 nM

Question: How did the IC50 (read-out: IC50) turn out when `NC(=O)c1cc(NC(=O)N2CCC[C@H]2C(=O)Nc2cccc(OC(F)(F)F)c2)n2ccccc12` [Example 123, (S)-Pyrrolidine-1,2-dicarboxylic acid 1-[(1-carbamoyl-indolizin-3-yl)-amide]2-[(3-trifluoromethoxy-phenyl)-amide]] was run?
Answer: 2930 nM

Question: `N#C[C@H]1C[C@@H](C(=O)Nc2cccc(OC(F)(F)F)c2)N(C(=O)Nc2cn(C(N)=O)c3ccccc23)C1` [Example 125, (2S,4S)-4-Cyano-pyrrolidine-1,2-dicarboxylic acid 1-[(1-carbamoyl-1H-indol-3-yl)-amide]2-[(3-trifluoromethoxy-phenyl)-amide]] was tested. Which IC50 (read-out: IC50) did it give?
Answer: 5100 nM

Question: With `C[C@@H]1CCN(C(=O)Nc2cn(C(N)=O)c3ccccc23)[C@@H]1C(=O)NCc1cccc(Cl)c1F` [Example 126, (2S,3R)-3-Methyl-pyrrolidine-1,2-dicarboxylic acid 1-[(1-carbamoyl-1H-indol-3-yl)-amide] 2-(3-chloro-2-fluoro-benzylamide)] as the compound, how does the IC50 (read-out: IC50) read?
Answer: 100 nM

Question: With `CC(C)(C)OC(=O)Cc1ccc2c(NC(=O)N3[C@@H]4C[C@@H]4C[C@H]3C(=O)NCc3cccc(Cl)c3F)cn(C(N)=O)c2c1` [Example 127, (1-Carbamoyl-3-{[(1R,3S,5R)-3-(3-chloro-2-fluoro-benzylcarbamoyl)-2-aza-bicyclo[3.1.0]hexane-2-carbonyl]-amino}-1H-indol-6-yl)-acetic acid tert-butyl ester] as the compound, how does the IC50 (read-out: IC50) read?
Answer: 3 nM

Question: How did the IC50 (read-out: IC50) turn out when `CO[C@H]1C[C@@H](C(=O)Nc2cccc(OC(F)(F)F)c2)N(C(=O)Nc2cn(C(N)=O)c3ccccc23)C1` [Example 128, (2S,4S)-4-Methoxy-pyrrolidine-1,2-dicarboxylic acid 1-[(1-carbamoyl-1H-indol-3-yl)-amide] 2-[(3-trifluoromethoxy-phenyl)-amide]] was run?
Answer: 2000 nM

Question: Which IC50 (read-out: IC50) does the source give for `CC(=O)n1cc(NC(=O)N2[C@@H]3C[C@@H]3C[C@H]2C(=O)N[C@H](CO)c2cccc(Cl)c2F)c2ccccc21` [Example 129, (1R,3S,5R)-2-Azabicyclo[3.1.0]hexane-2,3-dicarboxylic acid 2-[(1-acetyl-1H-indol-3-yl)-amide] 3-{[(S)-1-(3-chloro-2-fluoro-phenyl)-2hydroxy-ethyl]-amide}] here?
Answer: 4 nM

Question: For `CNC(=O)n1cc(NC(=O)N2[C@@H]3C[C@@H]3C[C@H]2C(=O)NCc2cccc(Cl)c2F)c2ccccc21` [Example 130, (1R,3S,5R)-2-Azabicyclo[3.1.0]hexane-2,3-dicarboxylic acid 3-(3-chloro-2-fluoro-benzylamide) 2-[(1-methylcarbamoyl-1H-indol-3-yl)-amide]], which IC50 (read-out: IC50) is on record?
Answer: 54 nM

Question: `COCCOc1ccc2c(c1)c(NC(=O)N1C[C@](C)(F)C[C@H]1C(=O)NCc1cccc(Cl)c1F)cn2C(N)=O` [Example 132, (2S,4R)-4-Fluoro-methyl-pyrrolidine-1,2-dicarboxylic acid 1-{[1-carbamoyl-5-(2-methoxy-ethoxy)-1H-indol-3-yl]-amide} 2-(3-chloro-2-fluoro-benzylamide)] was tested. Which IC50 (read-out: IC50) did it give?
Answer: 18 nM

Question: With `COC(=O)COc1ccc2c(c1)c(NC(=O)N1[C@@H]3C[C@@H]3C[C@H]1C(=O)NCc1cccc(Cl)c1F)cn2C(N)=O` [Example 133, (1-carbamoyl-3-{[(1R,3S,5R)-3-(3-chloro-2-fluoro-benzylcarbamoyl)-2-azabicyclo[3.1.0]hexane-2-carbonyl]amino}-1H-indol-5-yloxy)-acetic acid methyl ester] as the compound, how does the IC50 (read-out: IC50) read?
Answer: 6 nM

Question: `NC(=O)n1cc(NC(=O)N2CC3CC3[C@H]2C(=O)NCc2cccc(Cl)c2F)c2ccccc21` (stereo partly drawn) [Example 135, (1S,2S,5R)-3-Aza-bicyclo[3.1.0]hexane-2,3-dicarboxylic acid 3-[(1-carbamoyl-1H-indol-3-yl)-amide] 2-(3-chloro-2-fluoro-benzylamide)] was tested. Which IC50 (read-out: IC50) did it give?
Answer: 59 nM

Question: With `NC(=O)n1cc(NC(=O)N2CC3CC2(C(=O)NCc2cccc(Cl)c2F)C3)c2ccccc21` [Example 136, 2-Aza-bicyclo[2.1.1]hexane-1,2-dicarboxylic acid 2-[(1-carbamoyl-1H-indol-3-yl)-amide] 1-(3-chloro-2-fluoro-benzylamide)] as the compound, how does the IC50 read?
Answer: 17900 nM

Question: Which IC50 (read-out: IC50) does the source give for `NC(=O)n1cc(NC(=O)N2C[C@H](F)C[C@H]2C(=O)NCc2cccc(Br)c2F)c2ccccc21` [Example 138, (2S,4R)-4-Fluoro-pyrrolidine-1,2-dicarboxylic acid 2-(3-bromo-2-fluoro-benzylamide) 1-[(1-carbamoyl-1H-indol-3-yl)-amide]] here?
Answer: 9 nM

Question: How did the IC50 (read-out: IC50) turn out when `CC(=O)NC[C@H]1CC[C@@H](C(=O)Nc2cccc(OC(F)(F)F)c2)N1C(=O)Nc1cn(C(N)=O)c2ccccc12` [Example 139, (2S,5R)-5-(Acetylamino-methyl)-pyrrolidine-1,2-dicarboxylic acid 1-[(1-carbamoyl-1H-indol-3-yl)-amide] 2-[(3-trifluoromethoxy-phenyl)-amide]] was run?
Answer: 1500 nM
